The subject of one data set is Hela cells. The data set is described as follows: Restoration of contact inhibition in colonies of Hela cells. The format is cell-based, human. The procedure:
Hela cells, a type of cell derived from human uterine tumor, were seeded in Eagle culture flasks at the concentration of 50 cells/cm^2. The cells were allowed to develop colonies during a period of 10 days with two changes of the medium on the second and sixth day. A tissue culture (minimum essential medium of Eagle with 10% calf serum) comprising amino acids, vitamins and glucose was employed.
2-Amino-2-thiazoline, obtained by treatment of the hydrochloride with a molar equivalent of sodium hydroxide, was added to the medium at varying concentrations on both the second day and the sixth day, after the initiation of the culture. A total of 3 flasks containing the cultured colonies were used for each concentration of 2-amino-2-thiazoline employed. On the tenth day, the cells were fixed in neutral formol and were stained with hematoxyline. A total of 500 colonies of the same size in each flask were counted at random and the percentage of colonies with contact inhibition (planar morphology) or without contact inhibition (pyrimidal or acuminated morphology) were noted.

Another data set in a line: Toxicity to humans. The format is in vivo. The conditions noted are these: doses up to at least 100 mg/kg. How it is done:
2-amino-2-thiazoline and 2-amino-2-thiazoline hydrochloride are also non-toxic to humans in doses up to at least 100 mg/kg. Therefore, the dosage administered can vary over a wide range, without concern that undesirable side-effects will result from large dosages.

The test system of data set [1] is other tumor receptors of different tissue origin. Put plainly: Preliminary study of biochemical affinity with tumor membrane receptors (other tissues). The class given is binding. An excerpt: (§1) The preceding description is but illustrative of the practice of the invention and it is to be understood that other expedients may be employed by those skilled in the art without departure from the scope of the invention. Data on human tumors have been provided for bladder cancer because in a preliminary study of the biochemical affinity of 2-amino-2-thiazoline with tumor membrane receptors, the affinity with the bladder tumor receptor was very high. […] Therefore, it is claimed that 2-amino-2-thiazoline is an antitumor agent for mammalian cancer acting without toxicity by inducing reverse transformation.

The subject of the next data set is bladder tumor receptor. The data set is described as follows: Preliminary study of biochemical affinity with tumor membrane receptors (bladder). The format is binding.
From the text: as §1

For data set [2], the system named is tumors of various origins. Put plainly: Preliminary clinical trial in tumors of various origins. The format is in vivo.
From the text: as §1

A further data set relates to Lewis Lung carcinoma. The data set is described as follows: Effect on mouse tumors: survival time, Lewis Lung carcinoma. The format is in vivo. The conditions noted are these: mice inoculated with Lewis Lung carcinoma. The procedure:
(§2) The effect of 2-amino-2-thiazoline on mouse tumors (le'ukemia 1210 and Lewis Lung carcinoma) was also tested. […] However, it is knwon that the cells associated with those tumors are extremely undifferentiated from normal cells so as to have lost all or nearly all of the cytoskeletal system of contractile microfilaments. Such cells would be expected to be insensitive to agents which induce reverse transformation. Leukemia 1210 and Lewis Lung carcinoma are transplantable tumors and, upon transplantation, they have lost the tissue specific membrane receptors which are the target of 2-amino-2-thiazoline.

The subject of the next data set is Leukemia 1210. The data set is described as follows: Effect on mouse tumors: survival time, leukemia 1210. The class given is in vivo. The conditions noted are these: mice inoculated with leukemia 1210. The procedure:
as §2

The test system of data set [3] is advanced metastastic bladder cancer. Put plainly: Clinical trial in patients with advanced metastatic bladder cancer. The class given is in vivo, humans. The procedure:
Clinical trials with 2-amino-2-thiazoline hydrochloride have been conducted on 9 patients suffering from advanced metastastic bladder cancer, not amenable to any other treatment.
Only patients with measurable and progressing bladder tumors and lung metastases the growth rate of which was measured weekly in X-ray plates for serveral weeks before beginning the treatment were admitted to the trial. The development of the bladder tumors was measured by cytos- copy after biopsy.
Each of the patients were intravenously administered 2-amino-2-thiazoline-hydrochloride, as an aqueous solution (25-75 mg/ml) at the dose of 1.5 mg/kg of body weight on a daily basis per 5 days, every three weeks (the first 5 patients), and at dose of 3 mg/kg daily per 5 days every three weeks (the following 4 patients).

The mark [4] stands for this setting: 1 μMol, added on day 2 and day 6, read on day 10.
Setting [5] is: 2 μMol, added on day 2 and day 6, read on day 10.
[6] abbreviates: 5 μMol, added on day 2 and day 6, read on day 10.
Where [7] appears, read: 10 μMol, added on day 2 and day 6, read on day 10.
Setting [8] is: 20 μMol, added on day 2 and day 6, read on day 10.
Setting [9] is: patient 1, bladder carcinoma, lesion lung and bladder, total dose 2.5 gr, i.v. 1.5 mg/kg daily per 5 days every three weeks.
Setting [10] is: patient 2, bladder carcinoma, lesion lung and bladder, total dose 3.2 gr, i.v. 1.5 mg/kg daily per 5 days every three weeks.
[11] abbreviates: patient 3, bladder carcinoma, lesion lung and bladder, total dose 2.8 gr, i.v. 1.5 mg/kg daily per 5 days every three weeks.
The mark [12] stands for this setting: patient 4, bladder carcinoma, lesion bladder, total dose 3.7 gr, i.v. 1.5 mg/kg daily per 5 days every three weeks.
Where [13] appears, read: patient 5, bladder carcinoma, lesion lung and bladder, total dose 4.9 gr, i.v. 1.5 mg/kg daily per 5 days every three weeks.
Where [14] appears, read: patient 6, bladder carcinoma, lesion bladder, total dose 12 gr, i.v. 3 mg/kg daily per 5 days every three weeks.
Where [15] appears, read: patient 7, bladder carcinoma, lesion lung and bladder, total dose 9.6 gr, i.v. 3 mg/kg daily per 5 days every three weeks.
[16] abbreviates: patient 8, bladder carcinoma, lesion lung and bladder, total dose 11.8 gr, i.v. 3 mg/kg daily per 5 days every three weeks.
The mark [17] stands for this setting: patient 9, bladder carcinoma, lesion lung and bladder, total dose 10.8 gr, i.v. 3 mg/kg daily per 5 days every three weeks.

Regarding `NC1=NCCS1` [2-Amino-2-thiazoline], the “Colonies without contact inhibition” value in the data set with Hela cells (setting [4]) is on record as 42%; with Hela cells (setting [5]) it was 41%; in the data set on Hela cells (setting [6]), 25%; in the data set with Hela cells (setting [7]), 14%; with Hela cells (setting [8]), 0%. Further, the “Total number of colonies” value in the data set with Hela cells (setting [4]) is recorded as 100%; in the data set with Hela cells (setting [5]), 100%; in the data set on Hela cells (setting [6]), 85%; in the data set on Hela cells (setting [7]), 75%; in the data set with Hela cells (setting [8]), 45%. Besides, the “Colonies with contact inhibition” value with Hela cells (1 μMol, added on day 2 and day 6, read on day 10, 500 colonies per flask) is given as 58%; in the data set on Hela cells (setting [5]), 59%; in the data set on Hela cells (setting [6]) it was 75%; in the data set on Hela cells (setting [7]) it was 86%; in the data set on Hela cells (20 μMol (maximum dosage), added on day 2 and day 6, read on day 10), 100%. Besides, the Toxicity result in “Toxicity to humans” is given as “non-toxic”. Further, the “affinity for other tumor receptors” value in data set [1] is on record as “shown affinity”. The “biochemical affinity with tumor membrane receptors” value in the data set with bladder tumor receptor is on record as “very high”. Also, the clinical response result in data set [2] was “stabilization and minor remissions”. Also, the “increasing the survival time of the mice” value in the data set with Lewis Lung carcinoma and in the data set on Leukemia 1210 was “completely inactive” throughout.
Take `Cl.NC1=NCCS1` [2-Amino-2-thiazoline·HCl, 2-amino-2-thiazoline hydrochloride]: the Toxicity entry in “Toxicity to humans” was “non-toxic”; in data set [3] (all 9 patients, i.v. 1.5 or 3 mg/kg daily per 5 days every three weeks), “None of the patients showed any toxicity”; in data set [3] (setting [9]), “none”; in data set [3] (setting [10]) it was “none”; in data set [3] (setting [11]) it was “none”; in data set [3] (setting [12]), “none”. In addition, the Toxicity result in data set [3] (setting [13]), in data set [3] (setting [14]), in data set [3] (setting [15]), in data set [3] (setting [16]) and in data set [3] (setting [17]) was “none” throughout. Besides, the “objective responses (mor than 50% reduction of tumor size)” value in data set [3] (number of responders out of the 9 cases, combined area of lung metastasis and size of the cystoscopic lesion) was determined as 4. For the same molecule, the Response result in data set [3] (setting [9]) is recorded as “complete remission”; in data set [3] (setting [10]) it was “partial remission”; in data set [3] (setting [11]), “complete remission”; in data set [3] (setting [12]), “stabilization”; in data set [3] (setting [13]), “stabilization”; in data set [3] (setting [14]) it was “complete remission”. The Response entry is on record as “complete remission” in data set [3] (setting [15]), “stabilization” in data set [3] (setting [16]) and “stabilization” in data set [3] (setting [17]).

Source of the values: patent publication EP0029697A1, “Pharmaceutical compositions for the treatment of neoplastic diseases and process therefor” (Gosalvez, Mario Gosalvez, priority 1979, dated 1981).
